# Key:
# Format in all cases: in vivo
# [1] = Inhibition of aggression in isolated and bulbectomized rats
# Description: The inhibition of aggression was assessed according to the method described by Vergnes and Karli in C.R. Soc. Biol. 1963, 157, p. 1061. The effect on the aggression is assessed in terms of the percentage of animals which became non-killers after treatment.
# [2] = Anxiolytic activity by MacMillan's conflict test; conditions: rats, i.p., 2,5 mg.kg^-1, vs physiological saline
# Text: In these conditioning experiments which operate in the presence of a food reward, performed in rats according to the method described by MacMillan in Fed. Proceedings, 1975, 34, (9), p. 1870-1879, two parameters in the animal's behavioral responses are considered. The first parameter is the variation in the level of punished responses, in the presence of an electric shock, under the influence of the treatment in comparison with the level of punished responses under the influence of physiological saline. The second parameter is the variation in the level of unpunished responses, without an electric shock, under the influence of the same treatment, in comparison with the level of unpunished responses when physiological saline is administered. A specific anxiolytic effect is established when, after the administration of a substance, the level of only the punished responses is increased.
# [3] = Inhibition of isolation-induced aggression in mice; conditions: Mus musculus, ip, read-out: Inhibitory ED50 (effective dose inhibiting 50% of the aggressive animals)
# Text: The compounds of general formula I inhibit the attacking behavior of mice rendered aggressive by isolation according to the method described by Yen, Stanger and Millman in Arch. Int. Pharmacodyn. 1959, 123, p. 179-185.
# [4] = Anxiolytic activity by the four-plates test; conditions: mice; for change in vivo at 5 mg/kg: 5 mg.kg^-1
# Description: The anxiolytic activity of the compounds of the general formula I was investigated in mice according to the method of Aron Simon Larousse and Boissier described in Neuropharmacology (1971) 10 p. 459-469). After treatment of the animals by means of different doses of the compounds of the invention administered intraperitoneally or orally, the increase in the percentage of transitions during the exploration of the base of the test cage, in the presence of electric shocks, was assessed.
# [5] = Anxiolytic activity by the "staircase" test; set-up: key to % variation in the steps climbed: NS: not significant; conditions: rats
# Text: The anxiolytic activity of the compounds of the invention was investigated in rats according to the method described by Thiebot, Soubrie and Boissier in J. Pharmacol. 1976, 7, (1), p. 87-102. In this test, behavior involving rearing movements is associated with a state of distress of the animal. The number of steps climbed represents the normal exploratory behavior of the rat introduced into the enclosure. Normally, an efficacious anxiolytic compound should decrease, during the test which lasts 3 minutes, the number of rearing movements without modifying the number of steps climbed, or on the contrary should increase this latter parameter.
# [6] = Anxiolytic activity by the Geller-Seifter test; conditions: rats, i.p., p<0.05
# Description: The anxiolytic activity of the compounds of the present invention was also assessed in rats with the Geller-Seifter test described by Geller, Kulac and Seifter in Psychopharmacologia, 1962, 3, p. 374-375.
# An increase related exclusively to the levels of the punished responses determines the existence of an authentic anxiolytic effect.
# [7] = Inhibition of the active conditioned avoidance response in rats; conditions: i.p.
# Text: The results obtained with the compounds of general formula I during the various experiments employing the method described by Courvoisier et al. in Arch. Int. Pharmacodyn., 1953, 92, p. 305-361 and by Janssen et al. in Arzneim, Forsch, 1965, 15, p.
# [8] = Mus musculus, ip, i.p., read-out: % increase in the responses (transitions)
structure (smiles),measurement,setting,value
"O=C1CN(Cc2ccccc2F)CC(=O)N1CCCN1CCN(c2cccc(C(F)(F)F)c2)CC1 [Example 1, 4-(2-Fluorobenzyl)-1-{3-[1-(3-trifluoromethylphenyl)-4-piperazinyl]propyl}-2,6-piperazinedione dimandelate]",% of non-killer animals,"[1]; i.p., 25 mg.kg^-1",45%
same,% variation in the unpunished responses,[2]; NS (not significant),+18%
same,% variation in the punished responses,[2]; S (significant),+49%
same,ED50,[3],7.64 mg/kg
same,change in vivo at 5 mg/kg,[4]; [8],65%
same,% increase in the responses,"[4]; p.o., 50 mg.kg^-1",64%
same,% variation in the rearing movements,"[5]; i.p., 10 mg.kg^-1",-39%
same,% variation in the steps climbed,"[5]; i.p., 10 mg.kg^-1",NS
same,% variation in the rearing movements,"[5]; i.p., 20 mg.kg^-1",-64%
same,% variation in the steps climbed,"[5]; i.p., 20 mg.kg^-1",NS
same,% variation in the rearing movements,"[5]; i.p., 2,5 mg.kg^-1",-20%
same,% variation in the steps climbed,"[5]; i.p., 2,5 mg.kg^-1",NS
same,increase in the punished responses,[6]; 2.5 mg.kg^-1,39%
"O=C1CN(Cc2ccccc2F)CC(=O)N1CCCN1CCN(c2cccc(Cl)c2)CC1 [Example 2, 4-(2-Fluorobenzyl)-1-{3-8 1-(3-chlorophenyl)-4-piperazinyl]propyl}-2,6-piperazinedione dimandelate]",increase in the punished responses,[6]; 5.0 mg.kg^-1,65%
"COc1ccccc1CN1CC(=O)N(CCCCN2CCN(c3cccc(C(F)(F)F)c3)CC2)C(=O)C1.Cl.Cl [Example 6, 4-(2-Methoxybenzyl)-1-{4-[1-(3-trifluoromethylphenyl)-4-piperazinyl]butyl}-2,6-piperazinedione dihydrochloride]",ED50,[3],4.74 mg/kg
same,change in vivo at 25 mg/kg,"[4]; Mus musculus, ip, i.p., 25 mg.kg^-1, read-out: % increase in the responses (transitions)",37%
"O=C1CN(Cc2ccccc2)CC(=O)N1CCCN1CCN(c2ccc(F)cc2)CC1 [Example 9, 4-Benzyl-1-{3-[1-(4-fluorophenyl)-4-piperazinyl]propyl}-2,6-piperazinedioneoxalate]",% of non-killer animals,"[1]; i.p., 25 mg.kg^-1",60%
same,ED50,[3],8.6 mg/kg
"Cl.Cl.Cl.O=C1CN(Cc2ccccn2)CC(=O)N1CCCN1CCN(c2ccccc2Cl)CC1 [Example 17, 4-(2-Pyridylmethyl)-1-{3-[1-(2-chlorophenyl)-4-piperazinyl]propyl}-2,6-piperazinedione trihydrochloride]",ED50,[3],6.11 mg/kg
"Cc1ccccc1N1CCN(CCCN2C(=O)CN(Cc3ccccn3)CC2=O)CC1.Cl.Cl.Cl [Example 19, 4-(2-Pyridylmethyl)-1-{3-[1-(2-methylphenyl)-4-piperazinyl]propyl}-2,6-piperazinedione trihydrochloride]",% ICAR (percentage inhibition of the conditioned avoidance response),[7]; 20 mg.kg^-1,26%
same,% ICAR (percentage inhibition of the conditioned avoidance response),[7]; 40 mg.kg^-1,73%
same,ED50,[3],6.78 mg/kg
"O=C(O)C(=O)O.O=C(O)C(=O)O.O=C1CN(Cc2ccccn2)CC(=O)N1CCCN1CCN(c2cccc(C(F)(F)F)c2)CC1 [Example 21, 4-(2-Pyridylmethyl)-1-{3-[1-(3-trifluoromethylphenyl)-4-piperazinyl]propyl}-2,6-piperazinedione dioxalate]",% of non-killer animals,"[1]; i.p., 12,5 mg.kg^-1",73%
same,ED50,[3],11.1 mg/kg
same,change in vivo at 5 mg/kg,[4]; [8],69%
